How the values were obtained:
hERG K+ channel = hERG K+ channel (Homo sapiens, UniProt Q12809); test: In vitro blocking of hERG K+ channels (QPatch automated patch-clamp, CHO-K1 cells); type: cell-based; settings: pH 7.4, at 10 μM, CHOhERG cells, 4 minutes of stimulation, average block on two cells
Description: hERG K^+ channels have been cloned from human heart and recombinant channels are stably expressed in CHO-K1 cells (CHOhERG). These cells have been purchased from bSys GmbH (CH-4052 Basel, Switzerland) and are grown in 150 mL culture flasks at 37° C. in 5% CO2. When the cells are ˜100% confluent, they are detached with 0.25% trypsin-EDTA solution and placed in the cell preparation unit of a QPatch automated patch-clamp robot (Sophion Bioscience A/S, 2750 Ballerup, Denmark). Currents through the hERG K^+ channels (IKhERG) are elicited using the following buffer solutions and voltage protocol: • extracellular solution (in mM): [NaCl]=150; [KCl]=4; [CaCl2]=1.2; [MgCl2]=1; [HEPES]=10; pH adjusted to 7.4 with NaOH; • intracellular solution (in mM): [KCl]=140; [NaCl]=10; [MgCl2]=1; [HEPES]=10; [EGTA]=5; [Mg-ATP]=5; […] After the cells have stabilized for a few minutes and the currents are steady, the amplitude of IKhERG is recorded under control conditions. Thereafter, the QPatch robot applies the test compound to the cell at the test concentration and, after 4 minutes of stimulation, the amplitude of IKhERG is recorded under test conditions. The ratio of the two amplitudes is used to define a fractional block and the average block on two cells is used to provide the effect of a given concentration (e.g. 10 μM). If, for a given test compound, a sufficient number of concentrations were tested, an apparent IC50 for inhibition of IKhERG is calculated.

S. aureus A798 = test: Bacterial growth minimal inhibitory concentrations (microdilution, cation-adjusted Mueller-Hinton Broth); type: cell-based; settings: for MIC: Staphylococcus aureus
Description: Minimal inhibitory concentrations (MICs; mg/l) were determined in cation-adjusted Mueller-Hinton Broth by a microdilution method following the description given in “Methods for Dilution Antimicrobial Susceptibility Tests for Bacteria that Grow Aerobically”, Approved standard, 7th ed., Clinical and Laboratory Standards Institute (CLSI) Document M7-A7, Wayne, Pa., USA, 2006.

[1] = comparison table of compounds of formula ICOMP

hERG K+ channel, sequence (Q12809 whole entry): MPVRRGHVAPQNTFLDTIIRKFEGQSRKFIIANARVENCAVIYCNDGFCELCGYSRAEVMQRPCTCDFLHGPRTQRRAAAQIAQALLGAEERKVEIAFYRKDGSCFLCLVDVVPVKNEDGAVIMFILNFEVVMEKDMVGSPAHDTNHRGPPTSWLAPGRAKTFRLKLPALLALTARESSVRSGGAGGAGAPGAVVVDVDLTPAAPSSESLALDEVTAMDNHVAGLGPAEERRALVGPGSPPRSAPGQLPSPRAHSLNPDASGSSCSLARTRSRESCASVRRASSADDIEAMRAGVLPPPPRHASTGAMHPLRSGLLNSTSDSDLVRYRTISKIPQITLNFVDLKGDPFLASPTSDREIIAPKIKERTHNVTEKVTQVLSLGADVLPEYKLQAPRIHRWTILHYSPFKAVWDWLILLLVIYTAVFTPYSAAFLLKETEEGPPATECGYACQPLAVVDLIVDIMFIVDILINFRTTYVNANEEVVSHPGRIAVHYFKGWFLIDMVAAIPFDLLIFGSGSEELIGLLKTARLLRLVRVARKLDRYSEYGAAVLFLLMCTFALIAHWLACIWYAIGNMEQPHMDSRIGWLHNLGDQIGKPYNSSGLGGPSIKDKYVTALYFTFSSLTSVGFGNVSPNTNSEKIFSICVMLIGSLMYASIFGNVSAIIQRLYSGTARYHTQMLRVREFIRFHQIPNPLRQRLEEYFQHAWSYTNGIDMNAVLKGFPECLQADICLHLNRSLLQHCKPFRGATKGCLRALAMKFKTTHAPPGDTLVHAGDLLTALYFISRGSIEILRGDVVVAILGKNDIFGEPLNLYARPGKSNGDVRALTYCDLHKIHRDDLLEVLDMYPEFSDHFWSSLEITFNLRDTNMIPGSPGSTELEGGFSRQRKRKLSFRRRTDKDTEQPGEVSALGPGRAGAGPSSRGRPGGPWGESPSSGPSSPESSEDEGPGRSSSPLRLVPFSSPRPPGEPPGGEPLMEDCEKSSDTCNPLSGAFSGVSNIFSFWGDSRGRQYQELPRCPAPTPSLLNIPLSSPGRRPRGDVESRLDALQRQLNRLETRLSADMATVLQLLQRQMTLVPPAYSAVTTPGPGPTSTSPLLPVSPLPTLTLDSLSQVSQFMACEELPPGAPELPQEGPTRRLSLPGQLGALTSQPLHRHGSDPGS

With `COc1ccc2ncc(F)c(C[C@H](O)[C@@H]3CC[C@@H](NCc4cc5c(nn4)OCCO5)CO3)c2n1` [Example 4, (1S)-1-{(2S,5R)-5-[(6,7-dihydro-[1,4]dioxino[2,3-c]pyridazin-3-ylmethyl)-amino]-tetrahydro-pyran-2-yl}-2-(3-fluoro-6-methoxy-[1,5]naphthyridin-4-yl)-ethanol] the inhibition at 4 min, 10 µM (hERG K+ channel) was 5%, the MIC (S. aureus A798; microdilution) was ≤ 0.031 mg/L and the “MIC for S. aureus A798” value (S. aureus A798; [1]) was “≦0.031 mg/l”.
`COc1ccc2nccc(C[C@H](O)[C@@H]3CC[C@@H](NCc4cc5c(cn4)OCCO5)CO3)c2n1` [Example 1, (1S)-1-{(2S,5R)-5-[(2,3-dihydro-[1,4]dioxino[2,3-c]pyridin-7-ylmethyl)-amino]tetrahydro-pyran-2-yl}-2-(6-methoxy-[1,5]naphthyridin-4-yl)-ethanol] was tested, and the inhibition at 4 min, 10 µM (hERG K+ channel) was 26%, the MIC (S. aureus A798; microdilution) was ≤ 0.031 mg/L and the “MIC for S. aureus A798” value (S. aureus A798; [1]) was “≦0.031 mg/l”.
In the case of `COc1ccc2ncc(F)c(CCC3CCC(NCc4cc5c(cn4)OCCO5)CO3)c2n1` (stereo not drawn) [Reference Example No. 1, reference compound], the inhibition at 4 min, 10 µM (hERG K+ channel) is reported as 77% and the MIC (S. aureus A798; [1]) is reported as ≤ 0.031 mg/L.
`COc1ccc2ncc(F)c(C[C@H](O)[C@@H]3CC[C@@H](NCc4cc5c(cn4)OCCO5)CO3)c2n1` [Example 3, (1S)-1-{(2S,5R)-5-[(2,3-dihydro-[1,4]dioxino[2,3-c]pyridin-7-ylmethyl)-amino]-tetrahydro-pyran-2-yl}-2-(3-fluoro-6-methoxy-[1,5]naphthyridin-4-yl)-ethanol] was tested, and the inhibition at 4 min, 10 µM (hERG K+ channel) was 29%, the MIC (S. aureus A798; microdilution) was ≤ 0.031 mg/L and the “MIC for S. aureus A798” value (S. aureus A798; [1]) was “≦0.031 mg/l”.
With `COc1ccc2ncc(F)c(C[C@H](O)[C@@H]3CC[C@@H](NCc4cc5c(cn4)OCS5)CO3)c2n1` [Example 8, (1S)-2-(3-fluoro-6-methoxy-[1,5]naphthyridin-4-yl)-1-{(2S,5R)-5-[(3-oxa-1-thia-5-aza-indan-6-ylmethyl)-amino]tetrahydro-pyran-2-yl}-ethanol] the MIC (S. aureus A798; microdilution) was ≤ 0.031 mg/L.

Source: patent US8211890B2, “5-amino-2-(1-hydroxy-ethyl)-tetrahydropyran derivatives” (Actelion Pharmaceuticals, priority 2008, dated 2012)
